Consider 30 compounds from patent publication US20250320227A1, “MACROCYCLIC OREXIN RECEPTOR AGONISTS AND USES THEREOF” (Jazz Pharmaceuticals Ireland Limited, priority 2022, published 2025).

The structures appear in SMILES notation.

This test concerns the target T1, human recombinant OX2 (hOX2) receptors expressed in CHO cells (Homo sapiens, UniProt O43614).
T1 construct: host or cells: CHO cells (hOX2-CHO)
T1 sequence (O43614 1-444): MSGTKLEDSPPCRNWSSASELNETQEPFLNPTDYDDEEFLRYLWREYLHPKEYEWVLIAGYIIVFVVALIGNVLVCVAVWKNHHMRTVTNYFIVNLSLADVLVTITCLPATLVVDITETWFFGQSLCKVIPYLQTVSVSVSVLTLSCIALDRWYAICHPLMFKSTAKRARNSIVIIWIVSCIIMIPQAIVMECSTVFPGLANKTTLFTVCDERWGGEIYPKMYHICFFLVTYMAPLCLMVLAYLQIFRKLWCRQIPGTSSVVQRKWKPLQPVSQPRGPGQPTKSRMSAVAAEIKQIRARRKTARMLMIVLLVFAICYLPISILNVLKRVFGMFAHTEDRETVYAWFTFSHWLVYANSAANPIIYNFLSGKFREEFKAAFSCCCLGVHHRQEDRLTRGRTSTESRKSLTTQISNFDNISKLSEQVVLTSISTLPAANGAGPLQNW
Description: IP-1 accumulation assay (IP-One HTRF) in hOX2-CHO cells. Type of test: cell-based. Conditions: 60 min incubation at 37° C., mean of at least two independent experiments, read-out: EC50_OX2R Category. In short, it runs like this: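 CHO cells in suspension in HBSS/20 mM HEPES pH 7.4 with 50 mM LiCl and 0.1% BSA, given compound (11-point series, 0.5% DMSO) for 60 min at 37 °C. IP-1 read by HTRF ratio, scaled to maximal OX-A response; EC50 from four-parameter fit, mean of ≥2 experiments.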
Regarding `O=C1COCC2(CCCN3C(=O)CCCCc4ccccc4-c4cccc(c4F)CC32)N1` (racemic) [Example 62, Rel-(3S, 18′S)-24′-fluoro-13′-azaspiro[morpholine-3,17′-tetracyclo[18.3.1.0^2,70.0^13,18]tetracosane]-1′(24′),2′(7′),3′,5′,20′,22′-hexaene-5,12′-dione], the EC50 was > 10 µM.

Turning to `O=C1COC[C@]2(CCCN3C(=O)COc4nccc(F)c4[C@H]4CC[C@H](CC4)OC[C@@H]32)N1` (single isomer, unassigned) [Example 46b], the EC50 fell in the range of 1 to 10 µM.

Consider `O=C1COC[C@]2(CCCN3C(=O)C4(CC4)COc4ccccc4[C@H]4CC[C@H](CC4)OC[C@@H]32)N1` (single isomer, unassigned) [Example 37b, (1′s,16′R,17′S,20′s)-dispiro[cyclopropane-1,10′-[8,19]dioxa-[12]azatetracyclo[18.2.2.0^2,70.0^12,17]tetracosane-16′,3″-morpholine]-2′(7′),3′,5′-triene-5″,11′-dione], for which the EC50 was 1 to 10 µM.

Consider `O=C1COCC2(CCCN3C(=O)CCOc4ccc(F)cc4[C@H]4CC[C@H](CC4)OCC32)N1` (mixture of isomers) [Example 49, Rel-(1′s,3S,17′R,20′s)-4′-fluoro-8′,19′-dioxa-12′-azaspiro[morpholine-3,16′-tetracyclo[18.2.2. 0^2,^7.0^12,^17]tetracosane]-2′(7′),3′,5′-triene-5,11′-dione], for which the EC50 was < 0.1 µM.

With `O=C1COCC2(CCCN3C(=O)C4(CC4)COc4cccc(F)c4[C@H]4CC[C@H](CC4)OCC32)N1` (mixture of isomers) [Example 72, (1′s,20′s)-3′-fluorodispiro [cyclopropane-1,10′-[8,19]dioxa-[12]azatetracyclo [18.2.2.0^2,^7.0^12,^17]tetracosane-16′,3″- morpholine]-2′,4′,6′-triene-5″,11′-dione], the EC50 is < 0.1 µM.

In the case of `Cc1ccc2c(c1)[C@H]1CC[C@H](CC1)OC[C@H]1N(C(=O)CO2)[C@H](C)C[C@]12COCC(=O)N2` (single isomer, unassigned) [Example 22b], the EC50 is > 10 µM.

For the compound `O=C1COC[C@@]2(CCCN3C(=O)CCOc4ccccc4[C@H]4CC[C@H](CC4)OC[C@H]32)N1` (single isomer, unassigned) [Example 33a], the EC50 is < 0.1 µM.

Take `C[C@@H]1CC2(COCC(=O)N2)C2CO[C@H]3CC[C@H](CC3)c3ccccc3OCCC(=O)N21` (relative stereo) [Example 13, rel-(1′s,3S, 13′R,16′R,19′s)-13′-methyl-8′,18′-dioxa-12′-azaspiro[morpholine-3,15′-tetracyclo[17.2.2.0^2,70.0^12,16]tricosane]-2′(7′),3′,5′-triene-5,11′-dione]: the EC50 was < 0.1 µM.

Take `O=C1COCC2(CCN3C(=O)COc4ccccc4[C@H]4CC[C@H](CC4)OCC32)N1` (mixture of isomers) [Example 3, rel-(1′s,3S, 15′R,18′s)-8′,17′-dioxa-11′-azaspiro[morpholine-3,14′-tetracyclo[16.2.2.0^2,70.0^11,15]docosane]-2′(7′),3′,5′-triene-5,10′-dione]: the EC50 lay in the range of 1 to 10 µM.

`O=C1COC[C@@]2(CCCN3C(=O)C4(CC4)COc4ccccc4[C@H]4CC[C@H](CC4)OC[C@H]32)N1` (single isomer, unassigned) [Example 37a, (1′s,16′S,17′R,20′s)-dispiro[cyclopropane-1,10′-[8,19]dioxa-[12]azatetracyclo[18.2.2.0^2,70.0^12,17]tetracosane-16′,3″-morpholine]-2′(7′),3′,5′-triene-5″,11′-dione]: the EC50 is < 0.1 µM.

On to `CN1CCOc2ccccc2-c2cccc(c2F)CC2N(CCCC23COCC(=O)N3)C1=O` (racemic) [Example 63, Rel-(3S,18′S)-24′-fluoro-11′-methyl-8′-oxa-11′,13′-diazaspiro[morpholine-3,17′-tetracyclo[18.3.1.0^2,70.0^13,18]tetracosane]-1′(24′),2′(7′),3′,5′,20′,22′-hexaene-5,12′-dione], for which the EC50 is 1 to 10 µM.

On to `C[C@@H]1C[C@]2(COCC(=O)N2)[C@H]2CO[C@H]3CC[C@H](CC3)c3cccc(Cl)c3OCC(=O)N12` (single isomer, unassigned) [Example 20b], for which the EC50 was > 10 µM.

With `C[C@@H]1COc2ccccc2[C@H]2CC[C@H](CC2)OC[C@H]2N(CC[C@]23COCC(=O)N3)C1=O` (single isomer, unassigned) [Example 5a], the EC50 is > 10 µM.

As for `O=C1COC[C@@]2(CCCN3C(=O)COc4c(F)cc(F)cc4[C@H]4CC[C@H](CC4)OC[C@H]32)N1` (single isomer, unassigned) [Example 39a], the EC50 is > 10 µM.

On to `O=C1N[C@]2(CCCN3C(=O)COc4ccccc4[C@H]4CC[C@H](CC4)OC[C@H]32)CO1` (single isomer, unassigned) [Example 67a], for which the EC50 is < 0.1 µM.

In the case of `C[C@@H]1CC2(COCC(=O)N2)C2CO[C@H]3CC[C@H](CC3)c3ccccc3OCCCC(=O)N21` (mixture of isomers) [Example 14, (1′s,14′R,20's)-14′-methyl-8′,19′-dioxa-13′-azaspiro[morpholine-3,16′-tetracyclo[18.2.2.0^2,70.0^13,17]tetracosane]-2′(7′),3′,5′-triene-5,12′-dione], the EC50 is < 0.1 µM.

Regarding `C[C@@H]1CC2(COCC(=O)N2)C2Cc3cccc(c3F)-c3ccccc3CCCCC(=O)N21` (mixture of isomers) [Example 29, (14′R)-23′-fluoro-14′-methyl-13′-azaspiro[morpholine-3,16′tetracyclo-[17.3.1.0^2,70.0^13,17]tricosane]-1′(23′),2′(7′),3′,5′,19′,21′-hexaene-5,12′-dione], the EC50 is > 10 µM.

As for `O=C1CCOc2ccccc2[C@H]2CC[C@H](CC2)OCC2N1CCCC21CCCS(=O)(=O)N1` (stereo partly drawn) [Example 60, Rel-(1s, 16R,17R,20s)-8,19-dioxa-12-azaspiro[tetracyclo[18.2.2.0^2,70.0^12,17]tetracosane-16,3′-[1λ^6,2]thiazinane]-2 (7),3,5-triene-1′,1′,11-trione], the EC50 was 0.1 to 1 µM.

Consider `C[C@@H]1C[C@]2(COCC(=O)N2)[C@H]2CO[C@H]3CC[C@H](CC3)c3ccccc3OCC(=O)N12` [Example 12b, (1′s,3R,12′R,15′S, 18′s)-12′-methyl-8′,17′-dioxa-11′-azaspiro[morpholine-3,14′-tetracyclo[16.2.2.0^2,70.0^11,15]docosane]-2′(7′),3′,5′-triene-5,10′-dione], for which the EC50 lay in the range of 0.1 to 1 µM.

As for `CC1COc2ccccc2[C@H]2CC[C@H](CC2)OCC2N(CCC23COCC(=O)N3)C1=O` (stereo partly drawn) [Example 5, (1′s,3S,16′R,19′s)-10′-methyl-8′,18′-dioxa-12′-azaspiro[morpholine-3,15-′tetracyclo[17.2.2.0^2,70.0^12,16]tricosane]-2′(7′), 3′,5′-triene-5, 11′-dione], the EC50 was 0.1 to 1 µM.

Take `O=C1N[C@@]2(CCCN3C(=O)COc4ccccc4[C@H]4CC[C@H](CC4)OC[C@@H]32)COC1F` (single isomer, unassigned) [Example 56b]: the EC50 was < 0.1 µM.

Consider `C[C@@H]1C[C@]2(COCC(=O)N2)[C@H]2CO[C@H]3CC[C@H](CC3)c3cccnc3OCC(=O)N12` (single isomer, unassigned) [Example 23b], for which the EC50 lay within 1 to 10 µM.

With `C[C@H]1CC(=O)N2CC[C@]3(COCC(=O)N3)[C@H]2CO[C@H]2CC[C@H](CC2)c2ccccc2O1` (single isomer, unassigned) [Example 4a], the EC50 was > 10 µM.

Turning to `O=C1COCC2(CCN3C(=O)C4(CC4)COc4ccccc4[C@H]4CC[C@H](CC4)OCC32)N1` (mixture of isomers) [Example 7, Rel-(1′s, 15'S,16′R,19′s)-dispiro[cyclopropane-1,10′-[8,18]dioxa-[12]azatetracyclo[17.2.2.0^2,70.0^12,16]tricosane-15′,3″-morpholine]-2′(7′),3′,5′-triene-5″,11′-dione], the EC50 was 1 to 10 µM.

`O=C1COC[C@]2(CCCN3C(=O)COc4cc(F)cc(F)c4[C@H]4CC[C@H](CC4)OC[C@@H]32)N1` (single isomer, unassigned) [Example 42b]: the EC50 was in the range of 0.1 to 1 µM.

As for `O=C1N[C@]2(CCCN3C(=O)COc4ccccc4[C@H]4CC[C@H](CC4)OC[C@H]32)COC1F` (single isomer, unassigned) [Example 56a], the EC50 is < 0.1 µM.

On to `O=C1COC[C@@]2(CCCN3C(=O)OCCCOc4cccc(c4)[C@H]4CC[C@H](CC4)OC[C@H]32)N1` (single isomer, unassigned) [Example 54a], for which the EC50 was < 0.1 µM.

On to `O=C1COCC2(CCCN3C(=O)C4(CC4)COc4ccccc4[C@H]4CC[C@H](CC4)OCC32)N1` (stereo partly drawn) [Example 37, Rel-(1′s,16′S,17′R,20's)-dispiro[cyclopropane-1,10′-[8,19]dioxa-[12]azatetracyclo[18.2.2.0^2,70.0^12,17]tetracosane-16′,3″-morpholine]-2′(7′),3′,5′-triene-5″,11′-dione], for which the EC50 was < 0.1 µM.

For `O=C1COC[C@]2(CCCN3C(=O)COc4c(F)cc(F)cc4[C@H]4CC[C@H](CC4)OC[C@@H]32)N1` (single isomer, unassigned) [Example 39b], the EC50 is < 0.1 µM.

For the compound `O=C1COC[C@@]2(CCCN3C(=O)COc4c(F)ccc(F)c4[C@H]4CC[C@H](CC4)OC[C@H]32)N1` (single isomer, unassigned) [Example 44a], the EC50 is < 0.1 µM.
